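A five-concentration, 48-hour dose response in 96-well plates underlies each endpoint, interpolated linearly between surrounding concentrations. TGI: concentration producing complete growth inhibition.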 Where a SMILES comes first, the peptide text is derived from it. The star is where a group is joined. Boc = CC(C)(C)OC(=O)*
Experiments:
Assay in all cases: NCI-60 cell line screen, 48 h
BT-549 breast = system: BT-549 breast
SF-295 CNS = system: SF-295 CNS
MDA-N = system: MDA-N
HOP-92 NSCLC = system: HOP-92 NSCLC
ACHN renal = system: ACHN renal
SW-620 colon = system: SW-620 colon
SNB-75 CNS = system: SNB-75 CNS
A498 renal = system: A498 renal
OVCAR-8 ovarian = system: OVCAR-8 ovarian
UO-31 renal = system: UO-31 renal
NCI/ADR-RES ovarian = system: NCI/ADR-RES ovarian
SNB-19 CNS = system: SNB-19 CNS
M14 melanoma = system: M14 melanoma
NCI-H23 lung = system: NCI-H23 lung
SF-539 CNS = system: SF-539 CNS
NCI-H226 lung = system: NCI-H226 lung
SR leukemia = system: SR leukemia
T-47D breast = system: T-47D breast

SMILES	TGI (BT-549 breast)	TGI (SF-295 CNS)	TGI (MDA-N)	TGI (HOP-92 NSCLC)	TGI (ACHN renal)	TGI (SW-620 colon)	TGI (SNB-75 CNS)	TGI (A498 renal)	TGI (OVCAR-8 ovarian)	TGI (UO-31 renal)	TGI (NCI/ADR-RES ovarian)	TGI (SNB-19 CNS)	TGI (M14 melanoma)	TGI (NCI-H23 lung)	TGI (SF-539 CNS)	TGI (NCI-H226 lung)	TGI (SR leukemia)	TGI (T-47D breast)
C[C@H]1O[C@@H](c2c(O)ccc3ccccc23)C[C@@H](N(C)C)C1O (stereo partly drawn)	> 100 µM	> 100 µM	> 100 µM	> 100 µM	> 100 µM	> 100 µM	> 100 µM	> 100 µM	> 100 µM	> 100 µM	> 100 µM	> 100 µM	> 100 µM	> 100 µM	> 100 µM	> 100 µM		
CCOC(=O)c1cc2c(ccc3cc(C(=O)OCC)[nH]c32)[nH]1	> 100 µM	> 100 µM	> 100 µM	> 100 µM	> 100 µM	> 100 µM	41.8 µM	> 100 µM		> 100 µM		74.6 µM	> 100 µM	> 100 µM	29.6 µM		45.3 µM	> 100 µM
O=C(Nc1cc(C(=O)Nc2cccc(S(=O)(=O)O)c2)cc(C(=O)Nc2cccc(S(=O)(=O)O)c2)c1)c1cccc(C(=O)Nc2cc(C(=O)Nc3cccc(S(=O)(=O)O)c3)cc(C(=O)Nc3cccc(S(=O)(=O)O)c3)c2)c1	> 100 µM	> 100 µM	> 100 µM		> 100 µM	> 100 µM	> 100 µM	> 100 µM	> 100 µM	> 100 µM	> 100 µM		> 100 µM	> 100 µM	> 100 µM	> 100 µM		> 100 µM
COc1c(C)c(C/C=C(\C)CCCCO[Si](C(C)C)(C(C)C)C(C)C)c(OC)c2ccccc12	> 100 µM	> 100 µM	> 100 µM	> 100 µM	> 100 µM	> 100 µM	> 100 µM		> 100 µM	> 100 µM	> 100 µM	> 100 µM	> 100 µM	> 100 µM	> 100 µM		> 100 µM	
CC(=N/NC(=S)N1CCCCC1)/C(=N\NC(=S)N1CCCCC1)c1ccccc1	3.56 µM	3.82 µM	7.64 µM	3.36 µM	3.01 µM		3.59 µM	2.65 µM	6.24 µM	4.03 µM	6.43 µM	3.64 µM	3.64 µM	5.16 µM	10.6 µM	3.47 µM		3.99 µM
CC(NC(=O)C(NC(=O)OC(C)(C)C)C(C)C)C(=O)N1CCCC1C(=O)NCC(=O)NC(C(=O)NCC(=O)O)C(C)C (stereo not drawn) (Boc-VAPGVG-OH; configuration not given here)		> 100 µM	> 100 µM	> 100 µM	> 100 µM	> 100 µM	> 100 µM	> 100 µM	> 100 µM	> 100 µM	> 100 µM	> 100 µM	> 100 µM	> 100 µM	> 100 µM		> 100 µM	> 100 µM
COc1ccc2cc(C(C)C(O)c3cc(F)c(F)c(F)c3F)ccc2c1 (stereo not drawn)	> 100 µM	> 100 µM	> 100 µM	> 100 µM	> 100 µM	> 100 µM	43.6 µM	> 100 µM	> 100 µM	> 100 µM	> 100 µM	> 100 µM	> 100 µM	> 100 µM		> 100 µM		> 100 µM
CC1CN=C(Nc2ccc(F)cc2F)S1 (stereo not drawn)		> 100 µM	> 100 µM	> 100 µM	> 100 µM	> 100 µM	> 100 µM	> 100 µM	> 100 µM	> 100 µM	> 100 µM	> 100 µM		> 100 µM	> 100 µM		> 100 µM	> 100 µM
C/C=C/c1c(O)c(=O)c2c(OC)cc(OC)c3c4c(OC)cc(OC)c5c(=O)c(O)c(/C=C/C)c(c1c23)c54	14.3 µM	> 100 µM	29.4 µM	35.5 µM	13.8 µM	87.8 µM	28.7 µM	> 100 µM	31.4 µM	6.33 µM	34 µM	17.2 µM	> 100 µM	23.9 µM	> 100 µM	15.8 µM	> 100 µM	
CC(=O)C1C(=O)C(=O)N(c2cccc(C)c2C)C1=O (stereo not drawn)	> 100 µM	> 100 µM	> 100 µM	> 100 µM	> 100 µM		> 100 µM		> 100 µM	> 100 µM	> 100 µM	> 100 µM	> 100 µM	> 100 µM	> 100 µM	> 100 µM		> 100 µM
CC(C)CNC(=O)CCc1cccc2c1oc1c(CCN)cccc12		31.6 µM	40.5 µM	22.7 µM	25.8 µM	27.5 µM	20.1 µM	32.3 µM	34.1 µM	25.2 µM	40.3 µM	15.9 µM	30.5 µM	26.7 µM	30.3 µM	33.6 µM	29 µM	37.1 µM
C/C=C(C)/C=C/CC(C)CCC=C(C)C (stereo not drawn)	> 100 µM	> 100 µM	> 100 µM	> 100 µM	> 100 µM	> 100 µM	> 100 µM	> 100 µM	> 100 µM	> 100 µM	> 100 µM	> 100 µM	> 100 µM		> 100 µM	> 100 µM	> 100 µM	
CCOC(=O)Cc1nnc2c(-c3ccccc3)nc3ccccc3n12	> 100 µM		> 100 µM	> 100 µM	48.3 µM	> 100 µM		> 100 µM		> 100 µM	> 100 µM	62.1 µM	> 100 µM	> 100 µM	> 100 µM	> 100 µM	> 100 µM	
O=C1CCCCC/C1=C\c1ccc(F)cc1	> 100 µM	> 100 µM	> 100 µM	> 100 µM	> 100 µM	> 100 µM	> 100 µM	> 100 µM		> 100 µM		> 100 µM	> 100 µM	> 100 µM		> 100 µM	> 100 µM	> 100 µM
